Reference: PMC4086519, “Anti-Trichophyton Activity of Protocatechuates and Their Synergism with Fluconazole” (Evidence-based Complementary and Alternative Medicine : eCAM, 2014)
Converted amounts (≈) assume the structure as drawn. Where two headings read alike, the source gives them in different places.

Experiments:
Assay type in all cases: cell-based
[1] = test system: Trichophyton mentagrophytes; test: Broth microdilution MIC (CLSI M38-A2, modified); details: 35°C, 7 days
Description: (§1) To evaluate its antifungal activity, […] of dermatophytes were tested: two clinical strains of Trichophyton rubrum (Tr1 and Tr2), Trichophyton rubrum ATCC MYA 3108, two clinical strains of Trichophyton mentagrophytes (Tm1 and Tm2), and Trichophyton mentagrophytes ATCC 40131 (Tm3). The microorganisms were obtained from the collection of the Clinical Mycology Laboratory of the Department of Clinical Analyses at the School of Pharmaceutical Sciences of Universidade Estadual Paulista (UNESP). The strains were cultivated on Sabouraud dextrose agar (Difco, BD Biosciences) and incubated at 28°C for 7-15 days. For all experiments, the strains were cultivated on Potato Dextrose Agar (Difco, BD Biosciences) and incubated at 28°C as described above or until sporulation. The dilution of the synthetic compounds was performed with DMSO (Synth, Diadema, Sao Paulo, Brazil) as described by Scorzoni et al.. […] The antifungal drugs were diluted according to the CLSI […]-A2 document. Stock solutions of Fluconazole (Sigma-Aldrich, St. Louis, MO, USA) were prepared, considering its power. Serial twofold dilutions were prepared according to the recommendations of Zhang and collaborators, with some modifications. The antifungal activity tests were performed using the broth microdilution method as described in […]-A2, a document produced by the Clinical and Laboratory Standards Institute (CLSI, 2008), with modifications. The medium used was RPMI 1640 with L-glutamine (Sigma-Aldrich, St. Louis, MO, USA) buffered to pH 7.0 with 0.165 M morpholinepropanesulfonic acid (MOPS) (Sigma-Aldrich, St. Louis, MO, USA), supplemented with 2% glucose. […] The suspension of conidia was then transferred to small sterile test tubes where they remained for 40 minutes to separate the microconidia, which were lighter and therefore present in the supernatant. […] These suspensions were diluted in RPMI 1640 (Sigma-Aldrich, St. […] Positive (100 μL of RPMI medium with 100 μL of inoculum) and negative (200 μL of RPMI) controls were included in all experiments. The plates were incubated with agitation at 35°C for 7 days. The MIC reading was performed by spectrophotometry at 490 nm.

Trichophyton rubrum [2] = test: Broth microdilution MIC (CLSI M38-A2, modified); details: 35°C, 7 days
Description: as §1

[3] = test system: Trichophyton mentagrophytes; test: Minimum fungicide concentration (MFC)
Description: (§2) A qualitative analysis of the fungal viability was performed by transferring a portion of the wells to a plate with Sabouraud (Difco, BD Biosciences) medium and incubating it at 35°C for the time determined for each fungal agent. […] A visual reading was performed to confirm the death or growth inhibition provided by fluconazole and the sixteen semisynthetic substances derived from protocatechuic acid.

Trichophyton rubrum [4] = test: Minimum fungicide concentration (MFC)
Description: as §2

[5] = test system: Trichophyton mentagrophytes; test: Checkerboard synergism assay with fluconazole; details: for MIC, substances alone: checkerboard, 168 hours
Description: (§3) The drug activity was assessed using a checkerboard method derived from a standardised procedure established by the National Committee for Clinical Laboratory Standards ([…]-A2). Briefly, the test was performed on the same medium used for susceptibility testing. Volumes of 50 μL of each drug in a concentration four times the final concentration were dispensed in 96-well plates ([…], Switzerland). To each well, 100 μL of the fungal suspension was added to produce a final concentration of 5.0 × 10^3 CFU/mL. As a negative control, we used 200 μL of RPMI, while as a positive control, we used 100 μL of RPMI medium with 100 μL of inoculum. The plates were incubated at 35°C, and the reading was completed after 168 hours. We conducted visual and spectrophotometric readings at 490 nm. To determine the effect of combinatorial fractions, we calculated the fractional inhibitory concentration (FIC). The FIC was calculated by taking the MIC of the substance in combination/MIC of the substance alone. The sum of the fractional inhibitory concentration (FIC) of each substance consists of the fractional inhibitory concentration index: (the MIC of drug A in combination/the MIC of drug A alone) + (the MIC of drug B in combination/the MIC of drug B alone).

Trichophyton rubrum [6] = test: Checkerboard synergism assay with fluconazole
Description: as §3

[7] = test system: NOK (oral human keratinocyte) cell lines; test: Sulphorhodamine B cytotoxicity assay; details: NOK cells, 24 hours
Description: The cytotoxicity of sixteen semisynthetic compounds derived from protocatechuic acid was assessed using a sulphorhodamine B assay in NOK (oral human keratinocyte) cell lines obtained from the American Type Culture Collection (Manassas, VA, USA). The strains were maintained in bottles appropriate for cell culture with keratinocyte serum free medium (Gibco, Life Technologies) and incubated in standard conditions of 37°C and 5% CO2. Cell concentrations ranging from 2.5 to 5.0 × 10^4 cells/mL were used for the formation of cell monolayers. The concentrations of pure substances were kept in contact with the cells for 24 hours. After the incubation period, the cells were treated with the sulphorhodamine B reagent (Sigma-Aldrich, St. Louis, MO, USA) as previously described by Skehan et al., with some modifications.

[8] = Tm3, T. mentagrophytes ATCC 40131
[9] = Tr1, T. rubrum clinical isolate
[10] = Tr2, T. rubrum clinical isolate

SMILES | MIC ([1]; Tm1, clinical isolate) | MIC ([1]; Tm2, clinical isolate) | MIC [1, 8] | MIC (Trichophyton rubrum [2]; [9]) | MIC (Trichophyton rubrum [2]; [10]) | MIC (Trichophyton rubrum [2]; Tr3, T. rubrum ATCC MYA 3108) | MFC ([3]; Tm1, clinical isolate) | MFC ([3]; Tm2, clinical isolate) | MFC [3, 8] | MFC (Trichophyton rubrum [4]; [9]) | MFC (Trichophyton rubrum [4]; [10]) | MFC (Trichophyton rubrum [4]; Tr3, T. rubrum ATCC MYA 3108) | further results
CCCCCCCCCCCCCCOC(=O)c1ccc(O)c(O)c1 [Protocatechuate tetradecyl] | > 250 µg/mL | 125 µg/mL (≈ 357 µM) | > 250 µg/mL | > 250 µg/mL | 125 µg/mL (≈ 357 µM) | > 250 µg/mL | > 250 µg/mL | 250 µg/mL (≈ 713 µM) | > 250 µg/mL | > 250 µg/mL | 125 µg/mL (≈ 357 µM) | > 250 µg/mL | 
CCCCCCCCCCCCOC(=O)c1ccc(O)c(O)c1 [Protocatechuate dodecyl] | 250 µg/mL (≈ 775 µM) | 62.5 µg/mL (≈ 194 µM) | 31.2 µg/mL (≈ 96.8 µM) | > 250 µg/mL | 125 µg/mL (≈ 388 µM) | > 250 µg/mL | 250 µg/mL (≈ 775 µM) | 62.5 µg/mL (≈ 194 µM) | 62.5 µg/mL (≈ 194 µM) | > 250 µg/mL | 125 µg/mL (≈ 388 µM) | 250 µg/mL (≈ 775 µM) | 
CCCCCCCCCCOC(=O)c1ccc(O)c(O)c1 [Protocatechuate decyl] | 7.8 µg/mL (≈ 26.5 µM) | 3.9 µg/mL (≈ 13.2 µM) | 3.90 µg/mL (≈ 13.2 µM) | 3.9 µg/mL (≈ 13.2 µM) | 3.9 µg/mL (≈ 13.2 µM) | 3.90 µg/mL (≈ 13.2 µM) | 7.8 µg/mL (≈ 26.5 µM) | 3.9 µg/mL (≈ 13.2 µM) | 15.6 µg/mL (≈ 53 µM) | 3.9 µg/mL (≈ 13.2 µM) | 3.9 µg/mL (≈ 13.2 µM) | 7.8 µg/mL (≈ 26.5 µM) | 
CCCCCCCCCCCCCCCCCCOC(=O)c1ccc(O)c(O)c1 [Protocatechuate octadecyl] | > 250 µg/mL | > 250 µg/mL | > 250 µg/mL | > 250 µg/mL | > 250 µg/mL | > 250 µg/mL | > 250 µg/mL | > 250 µg/mL | > 250 µg/mL | > 250 µg/mL | > 250 µg/mL | > 250 µg/mL | 
CCCCCCOC(=O)c1ccc(O)c(O)c1 [Protocatechuate hexyl, hexyl protocatechuate] | 1.95 µg/mL (≈ 8.18 µM) | 3.9 µg/mL (≈ 16.4 µM) | 3.90 µg/mL (≈ 16.4 µM) | 3.9 µg/mL (≈ 16.4 µM) | 1.95 µg/mL (≈ 8.18 µM) | 3.9 µg/mL (≈ 16.4 µM) | 3.90 µg/mL (≈ 16.4 µM) | 3.9 µg/mL (≈ 16.4 µM) | 7.80 µg/mL (≈ 32.7 µM) | 3.9 µg/mL (≈ 16.4 µM) | 3.90 µg/mL (≈ 16.4 µM) | 3.9 µg/mL (≈ 16.4 µM) | FIC index [5]: 0.72; MIC of the protocatechuate, substances combined [5]: 0.03 µg/mL; association type (in words) [5]: additive; MIC, substances alone ([5]; Tm1): 1.9 µg/mL; MIC, substances alone ([5]; Tm3 (ATCC 40131)): 3.9 µg/mL; FIC index (Trichophyton rubrum [6]): 1.1; MIC of the protocatechuate, substances combined (Trichophyton rubrum [6]): 0.48 µg/mL; association type (in words) (Trichophyton rubrum [6]): indifferent; reduction in the MIC of the protocatechuate (Trichophyton rubrum [6]): 8.125 times; MIC, substances alone (Trichophyton rubrum [6]; Tr1, checkerboard, 168 hours): 3.9 µg/mL; Cytotoxicity IC50 [7]: 66.5 µg/mL
CC(=O)Oc1ccc(C(=O)O)cc1OC(C)=O [Acid 3.4 diacetoxybenzoic, 3,4-diacetoxybenzoic acid] |  |  |  |  |  |  |  |  |  |  |  |  | MIC ([1]; Trichophyton mentagrophytes, 168 h, Tm1, clinical isolate, read-out: MIC): 250 µg/mL (≈ 1050 µM); MIC ([1]; Trichophyton mentagrophytes, 168 h, Tm2, clinical isolate, read-out: MIC): > 250 µg/mL; MIC ([1]; Trichophyton mentagrophytes, ATCC40131, 168 h, Tm3, T. mentagrophytes ATCC 40131, read-out: MIC): 250 µg/mL (≈ 1050 µM); MIC (Trichophyton rubrum [2]; Trichophyton rubrum, 168 h, Tr1, T. rubrum clinical isolate, read-out: MIC): 250 µg/mL (≈ 1050 µM); MIC (Trichophyton rubrum [2]; Trichophyton rubrum, 168 h, Tr2, T. rubrum clinical isolate, read-out: MIC): > 250 µg/mL; MIC (Trichophyton rubrum [2]; Trichophyton rubrum, 168 h, Tr3, T. rubrum ATCC MYA 3108, read-out: MIC): > 250 µg/mL; MFC ([3]; Trichophyton mentagrophytes, ATCC40131, Tm3, T. mentagrophytes ATCC 40131, read-out: MFC): 250 µg/mL (≈ 1050 µM); MFC ([3]; Trichophyton mentagrophytes, Tm1, clinical isolate, read-out: MFC): 250 µg/mL (≈ 1050 µM); MFC ([3]; Trichophyton mentagrophytes, Tm2, clinical isolate, read-out: MFC): > 250 µg/mL; MFC (Trichophyton rubrum [4]; Trichophyton rubrum, Tr1, T. rubrum clinical isolate, read-out: MFC): 250 µg/mL (≈ 1050 µM); MFC (Trichophyton rubrum [4]; Trichophyton rubrum, Tr2, T. rubrum clinical isolate, read-out: MFC): > 250 µg/mL; MFC (Trichophyton rubrum [4]; Trichophyton rubrum, Tr3, T. rubrum ATCC MYA 3108, read-out: MFC): > 250 µg/mL
